From ChEMBL document CHEMBL1201862, “PubChem BioAssay data set” (2004)
Calls of active or inactive are those of the source.

Columns and labels:
[1] = target: Tyrosyl-DNA phosphodiesterase 2 (Homo sapiens, UniProt O95551); assay: potency against TDP2 phosphodiesterase activity – biochemical, epi absorbance, IC50, dose response (AID 743297)
[2] = general cell-killing toxicity readout – plate reader, dry powder samples, cytotoxicity control for PAX8 inhibitor project, dose response (AID 743021); type: functional, cell-based
Paired box protein Pax-8 = Paired box protein Pax-8 (Homo sapiens, UniProt Q06710); assay: PAX8 transcriptional activity inhibition in RMG-I – RMG-I cells, luciferase, cherry-pick, dose response (AID 687027); type: functional, cell-based;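 further: luciferase reporter driven by Pax8 target thyroperoxidase promoter measured by SteadyGlo luminescence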
[3] = OVCAR-3 cell viability loss – plate reader, dry powder samples, PAX8 inhibitor project, dose response (AID 743044); type: functional, cell-based
Nonstructural protein 1 = Nonstructural protein 1 (Influenza A virus, UniProt Q194T2); type: functional, Influenza A virus (A/California/07/2009(H1N1))
HEK293 = assay: EBV LMP1 TES2 canonical NF-kB signalling blockers – cell-based, HEK293, luciferase, cherry-pick, dose response (AID 588343); type: functional; details: Homo sapiens
[4] = target: Photoreceptor-specific nuclear receptor (Homo sapiens, UniProt Q9Y5X4); type: functional, cell-based;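 further: CHO-S cells with Gal4-NCOR and VP16-NR2E3 two-hybrid luciferase reporter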
[5] = Trypanosoma cruzi growth suppression in host cells – NIH3T3 host cells, beta-gal luminescence, confirmation (AID 2044); type: functional, cell-based;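 further: intracellular parasites grown in NIH/3T3 mouse fibroblasts as host cells; luminescent beta-galactosidase reporter signal from transgenic T. cruzi replicating inside host cells; inhibitors lower the luminescence signal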
[6] = NIH3T3 cell viability loss – ATP luminescence, mouse fibroblasts, counter-screen, dose response (AID 2010); type: functional, cell-based;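 further: cells exposed to compound for about 90 hours before reading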
INS1 = assay: INS-1E survival protection against cytokine death – cell-based, luminescence, retest, dose response (AID 449756); type: functional; details: Rattus norvegicus;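 further: cell death triggered by IL-1 beta plus TNF-alpha plus IFN-gamma mixture; protective hits raise ATP signal compared with cytokine alone wells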
[7] = bead-based luminescence quenchers, dual-tagged ARNT – biochemical, AlphaScreen, cherry-pick, artefact control for ARNT-TACC3 interaction inhibitor project, dose response (AID 651705); type: functional;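 further: AlphaScreen bead proximity signal that flags compounds interfering with the detection technology; potency reflects signal decrease which marks the compound as an assay artifact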
[8] = target: 5-hydroxytryptamine receptor 2A (Mus musculus, UniProt P35363); type: functional, cell-based;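 further: CHO-K1 cells with tagged receptor and beta-arrestin; agonist potency measured as compound-induced activation of the receptor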
Mu-type opioid receptor = Mu-type opioid receptor (Homo sapiens, UniProt P35372); type: functional, cell-based;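 further: U2OS cells with beta-arrestin recruitment to OPRM1 by beta-gal complementation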
Sequence of Mu-type opioid receptor (P35372 whole entry): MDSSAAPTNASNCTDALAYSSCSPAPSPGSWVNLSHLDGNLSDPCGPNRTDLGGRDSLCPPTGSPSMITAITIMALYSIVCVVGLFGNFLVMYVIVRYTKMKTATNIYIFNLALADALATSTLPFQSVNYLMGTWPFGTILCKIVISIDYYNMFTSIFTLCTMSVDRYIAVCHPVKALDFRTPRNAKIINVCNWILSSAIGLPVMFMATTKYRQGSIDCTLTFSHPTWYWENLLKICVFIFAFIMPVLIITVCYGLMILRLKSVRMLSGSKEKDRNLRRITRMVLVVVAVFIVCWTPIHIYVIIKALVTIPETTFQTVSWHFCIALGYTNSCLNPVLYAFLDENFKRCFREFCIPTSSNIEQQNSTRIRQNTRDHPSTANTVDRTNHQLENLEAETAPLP

Sequence of Paired box protein Pax-8 (Q06710 whole entry): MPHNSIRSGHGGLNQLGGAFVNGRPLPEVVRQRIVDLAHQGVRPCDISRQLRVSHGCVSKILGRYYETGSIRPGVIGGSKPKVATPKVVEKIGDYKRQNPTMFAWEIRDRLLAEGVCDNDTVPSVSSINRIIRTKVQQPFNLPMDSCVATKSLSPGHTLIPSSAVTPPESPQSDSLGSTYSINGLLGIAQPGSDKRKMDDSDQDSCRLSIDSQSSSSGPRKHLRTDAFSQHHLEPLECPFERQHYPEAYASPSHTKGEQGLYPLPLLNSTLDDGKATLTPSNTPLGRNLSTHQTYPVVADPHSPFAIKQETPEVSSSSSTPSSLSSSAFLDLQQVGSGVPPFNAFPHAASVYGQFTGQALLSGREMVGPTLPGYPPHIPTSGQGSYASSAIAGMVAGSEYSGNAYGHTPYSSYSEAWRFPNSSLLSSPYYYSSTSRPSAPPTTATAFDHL
Sequence of 5-hydroxytryptamine receptor 2A (P35363 whole entry): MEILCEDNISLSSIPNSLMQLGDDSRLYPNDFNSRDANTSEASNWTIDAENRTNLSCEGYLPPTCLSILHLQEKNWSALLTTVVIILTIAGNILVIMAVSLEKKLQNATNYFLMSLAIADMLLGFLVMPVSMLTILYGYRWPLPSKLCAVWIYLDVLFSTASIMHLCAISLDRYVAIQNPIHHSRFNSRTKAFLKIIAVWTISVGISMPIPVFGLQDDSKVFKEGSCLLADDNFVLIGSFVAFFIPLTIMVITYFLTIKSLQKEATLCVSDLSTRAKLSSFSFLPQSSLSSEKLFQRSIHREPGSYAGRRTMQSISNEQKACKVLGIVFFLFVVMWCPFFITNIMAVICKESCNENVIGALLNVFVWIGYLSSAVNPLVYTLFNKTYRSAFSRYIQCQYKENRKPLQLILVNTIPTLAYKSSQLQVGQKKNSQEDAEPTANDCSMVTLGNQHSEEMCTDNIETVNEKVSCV
Sequence of Tyrosyl-DNA phosphodiesterase 2 (O95551 whole entry): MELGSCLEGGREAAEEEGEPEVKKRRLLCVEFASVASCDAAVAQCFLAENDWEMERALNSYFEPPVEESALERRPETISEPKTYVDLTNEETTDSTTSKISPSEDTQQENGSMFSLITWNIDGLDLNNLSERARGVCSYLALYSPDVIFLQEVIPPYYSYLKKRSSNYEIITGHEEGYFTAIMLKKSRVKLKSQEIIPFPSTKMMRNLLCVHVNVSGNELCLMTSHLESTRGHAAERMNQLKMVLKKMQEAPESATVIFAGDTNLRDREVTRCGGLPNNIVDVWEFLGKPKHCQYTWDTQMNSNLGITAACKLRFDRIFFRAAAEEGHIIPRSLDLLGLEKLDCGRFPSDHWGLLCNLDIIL
Sequence of Nonstructural protein 1 (Q194T2 whole entry): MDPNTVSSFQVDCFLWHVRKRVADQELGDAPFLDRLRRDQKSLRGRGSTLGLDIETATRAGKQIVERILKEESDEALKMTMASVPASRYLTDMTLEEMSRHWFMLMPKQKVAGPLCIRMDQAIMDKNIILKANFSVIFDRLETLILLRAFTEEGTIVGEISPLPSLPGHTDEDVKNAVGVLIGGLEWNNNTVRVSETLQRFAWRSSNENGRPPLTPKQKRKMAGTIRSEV
Sequence of Photoreceptor-specific nuclear receptor (Q9Y5X4 whole entry, the tested form may be a part): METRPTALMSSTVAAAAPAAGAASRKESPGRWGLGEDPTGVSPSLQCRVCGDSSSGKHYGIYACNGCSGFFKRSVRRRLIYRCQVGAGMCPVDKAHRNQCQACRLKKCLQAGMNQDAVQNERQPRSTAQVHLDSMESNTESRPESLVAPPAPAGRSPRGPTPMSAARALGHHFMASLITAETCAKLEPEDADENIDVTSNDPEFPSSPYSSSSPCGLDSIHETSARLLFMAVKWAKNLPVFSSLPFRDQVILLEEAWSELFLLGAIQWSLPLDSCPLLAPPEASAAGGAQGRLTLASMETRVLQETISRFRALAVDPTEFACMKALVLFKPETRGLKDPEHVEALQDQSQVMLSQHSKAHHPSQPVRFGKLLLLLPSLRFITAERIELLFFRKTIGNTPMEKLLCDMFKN

S=C(Nc1ccc2nsnc2c1)N1CCCC1
IC50 [1]: > 128 µM (inactive)

O=C1CN(S(=O)(=O)Cc2ccccc2)C[C@H]2[C@H](c3ccc(C#Cc4ccc(F)cc4)cc3)[C@H](CO)N12
AC50 [2]: 56 µM (active) | AC50 (Paired box protein Pax-8): 8.12 µM (active) | AC50 [3]: 32.6 µM (active)

N=C(N)N/N=C(\c1ccc(F)cc1)c1ccc(C(F)(F)F)cc1
AC50 [2]: 39.9 µM (active) | AC50 (Paired box protein Pax-8): 3.32 µM (active)

CCC(C)Nc1nc(-c2ccccn2)nc2ccccc12 (stereo not given)
IC50 (Nonstructural protein 1): 25.5 µM (active) | AC50 (HEK293): 4.94 µM (active) | IC50 [4]: 4.14 µM (active) | EC50 [5]: 1.33 µM (active) | EC50 [6]: > 30 µM (not active) | AC50 (INS1): 2.89 µM (active) | AC50 [7]: 117 µM (active)

c1ccc(CN2CCN(c3ncccn3)CC2)cc1
EC50 [8]: 0.235 µM (active) | EC50 (Mu-type opioid receptor): 92.5 µM (inactive)
